According to PMC11697083 (Nature Communications, 2025):

Assays:
Format in all cases: biochemical
[1] = biological target: T1, KIF18A (Homo sapiens, UniProt Q8NI77); test: ADP-Glo ATPase assay at varied ATP
T1 sequence (Q8NI77 1-374): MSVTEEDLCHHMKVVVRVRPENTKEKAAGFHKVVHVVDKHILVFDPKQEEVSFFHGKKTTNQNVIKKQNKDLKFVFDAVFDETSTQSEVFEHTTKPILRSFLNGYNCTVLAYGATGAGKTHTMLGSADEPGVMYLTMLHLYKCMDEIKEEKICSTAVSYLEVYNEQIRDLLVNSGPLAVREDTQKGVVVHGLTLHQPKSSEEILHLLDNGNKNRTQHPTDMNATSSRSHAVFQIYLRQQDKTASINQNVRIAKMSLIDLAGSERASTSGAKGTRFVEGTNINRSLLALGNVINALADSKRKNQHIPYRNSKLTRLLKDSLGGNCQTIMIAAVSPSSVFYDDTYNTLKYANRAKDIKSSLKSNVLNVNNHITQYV

[2] = biological target: T2, KIF19 (Homo sapiens, UniProt Q2TAC6); test: ADP-Glo ATPase assay
T2 sequence (Q2TAC6 1-998): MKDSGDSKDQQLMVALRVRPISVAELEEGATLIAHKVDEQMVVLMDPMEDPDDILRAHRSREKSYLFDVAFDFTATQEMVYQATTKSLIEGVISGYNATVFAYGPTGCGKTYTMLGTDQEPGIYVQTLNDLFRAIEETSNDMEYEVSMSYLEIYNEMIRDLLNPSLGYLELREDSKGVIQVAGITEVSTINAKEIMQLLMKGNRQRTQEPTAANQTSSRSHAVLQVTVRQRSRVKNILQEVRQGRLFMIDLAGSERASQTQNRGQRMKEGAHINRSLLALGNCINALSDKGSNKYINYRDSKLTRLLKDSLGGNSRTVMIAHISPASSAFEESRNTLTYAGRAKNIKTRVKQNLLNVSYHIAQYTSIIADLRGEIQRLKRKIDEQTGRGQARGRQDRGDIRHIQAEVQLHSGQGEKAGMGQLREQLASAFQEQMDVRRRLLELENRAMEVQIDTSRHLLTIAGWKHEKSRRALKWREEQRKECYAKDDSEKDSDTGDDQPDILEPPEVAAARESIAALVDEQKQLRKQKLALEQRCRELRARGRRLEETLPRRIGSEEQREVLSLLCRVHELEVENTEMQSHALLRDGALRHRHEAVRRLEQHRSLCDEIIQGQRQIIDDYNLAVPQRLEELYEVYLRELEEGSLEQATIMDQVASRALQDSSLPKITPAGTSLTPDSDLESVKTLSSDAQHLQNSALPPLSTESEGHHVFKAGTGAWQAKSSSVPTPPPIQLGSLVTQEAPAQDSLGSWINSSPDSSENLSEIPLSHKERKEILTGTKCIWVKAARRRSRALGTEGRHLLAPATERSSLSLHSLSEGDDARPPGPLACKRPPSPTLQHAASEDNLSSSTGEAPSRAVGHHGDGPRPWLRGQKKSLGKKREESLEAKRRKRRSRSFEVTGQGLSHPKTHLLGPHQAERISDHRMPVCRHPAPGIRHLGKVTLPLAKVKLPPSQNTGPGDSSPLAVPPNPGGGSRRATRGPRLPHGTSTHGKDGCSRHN

[3] = biological target: T3, Murine KIF18A (Mus musculus, UniProt Q91WD7); test: ADP-Glo ATPase assay
T3 sequence (Q91WD7 1-886): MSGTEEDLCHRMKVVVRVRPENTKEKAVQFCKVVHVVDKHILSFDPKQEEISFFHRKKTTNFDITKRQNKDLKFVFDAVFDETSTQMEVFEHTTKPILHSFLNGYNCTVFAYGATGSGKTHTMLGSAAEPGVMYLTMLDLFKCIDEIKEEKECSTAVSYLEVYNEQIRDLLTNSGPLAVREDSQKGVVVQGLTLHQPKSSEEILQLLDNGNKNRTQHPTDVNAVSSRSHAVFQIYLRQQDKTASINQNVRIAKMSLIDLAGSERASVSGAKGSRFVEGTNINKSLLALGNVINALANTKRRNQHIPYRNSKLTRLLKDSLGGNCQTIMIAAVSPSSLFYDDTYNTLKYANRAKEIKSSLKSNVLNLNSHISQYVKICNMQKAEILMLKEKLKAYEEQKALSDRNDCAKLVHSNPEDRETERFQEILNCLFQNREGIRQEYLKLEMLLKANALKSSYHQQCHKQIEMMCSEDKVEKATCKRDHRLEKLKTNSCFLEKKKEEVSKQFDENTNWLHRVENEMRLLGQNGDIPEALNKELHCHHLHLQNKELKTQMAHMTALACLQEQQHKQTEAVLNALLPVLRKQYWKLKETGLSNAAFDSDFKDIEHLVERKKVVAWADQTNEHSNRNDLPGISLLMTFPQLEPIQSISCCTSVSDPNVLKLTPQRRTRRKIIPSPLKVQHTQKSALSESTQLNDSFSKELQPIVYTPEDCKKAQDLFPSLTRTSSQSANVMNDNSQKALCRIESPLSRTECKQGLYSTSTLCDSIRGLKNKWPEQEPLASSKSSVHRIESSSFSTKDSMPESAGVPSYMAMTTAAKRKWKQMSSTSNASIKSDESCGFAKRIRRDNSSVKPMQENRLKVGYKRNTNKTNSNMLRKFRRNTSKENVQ

Row | IC50 [1] [nM] | IC50 [2] [nM] | IC50 [3] [nM] | SMILES
1 | 2200 |  |  | O=[N+]([O-])c1cc(Cl)ccc1S(=O)(=O)c1ccccc1 [BTB-1]
2 |  | 280 | 8.8 | CC(C)(C)NS(=O)(=O)c1cccc(C(=O)N2CC3(CCC4(CC4)CC3)c3cc(NS(C)(=O)=O)ccc32)c1 [compound 11, N-(tert-butyl)-3-(5”-(methylsulfonamido)dispiro[cyclopropane-1,1’-cyclohexane-4’,3”-indoline]-1”-carbonyl)benzenesulfonamide]
